The record followed here is US20260242478A1, “ANTIBODIES FOR TARGETING PSMA AND CD28 AND USES THEREOF” (Janux Therapeutics, Inc., priority 2023, published 2026).

The test system of the assay is anti-CD28 scFv. Kind of assay: Panning ELISA of clonal phage, anti-CD28 scFv, with or without CD28 soluble protein (Peptide-9 library). Type of assay: binding. The following applies: background (no anti-CD28 scFv). How it is done:
Clonal phage were harvested as crude supernatants and screened via standard enzyme linked immunosorbent assays (ELISAs). […] Prior to the addition of clonal phage, wells were incubated with blocking buffer and CD28 soluble protein or blocking buffer alone. Without washing or aspirating, clonal phage supernatants were then added to the wells and incubated for a short time. Wells were then washed followed by detection of bound phage using a horse radish peroxidase conjugated anti-M13 antibody. Clonal phage of interest were then sent for sequence analysis.
On the technique in general: An ELISA detects its analyte on a solid surface through an enzyme-linked reagent.

Where no end group is shown, it is not given here.

anti-CD28 scFv, sequence (as listed by the source): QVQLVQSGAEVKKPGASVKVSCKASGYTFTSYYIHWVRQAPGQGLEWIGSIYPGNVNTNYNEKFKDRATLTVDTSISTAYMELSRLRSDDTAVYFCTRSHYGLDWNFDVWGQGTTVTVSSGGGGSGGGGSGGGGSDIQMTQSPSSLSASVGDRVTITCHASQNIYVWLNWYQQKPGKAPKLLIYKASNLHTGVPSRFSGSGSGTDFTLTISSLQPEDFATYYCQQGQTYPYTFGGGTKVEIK

In the case of Phage-388 (MDWCPRFMWNFCFF), the Background signal is reported as 2.200.
In turn, Phage-434 (IVWCPTTQWNRCAT) gave a Background signal (Peptide-9 library) of 0.113.
On the same count and under the same terms, the value for Phage-115 (MDWCPRYLWHECFN) was 0.105; that for Phage-411 (MSWCPRFMWHECFN) was 0.081; that for Phage-451 (MDWCPRFWWHECYA) was 0.246.
Phage-362 (MDWCPRILWHECFS) came in with a Background signal of 0.064.
Under “Peptide-9 library”, Phage-128 (MDWCPRDLWIECFF) yielded a Background signal of 0.084.
The same measure, in the same setting: the value for Phage-137 (MDWCPRYLWHECFH) was 0.101.
Turning to Phage-345 (MDFCPRFLWHECFN), the Background signal is 0.063.
Still for that read-out and setting: the value for Phage-340 (MSWCPIDLWSECFA) was 0.072.
On the same count and under the same terms, the value for Phage-285 (MDWCPRDLWAMCFA) was 0.071.
Regarding Phage-449 (MVDCPLISFDECLA), the Background signal (Peptide-9 library) turned out to be 0.246.
In the case of Phage-310 (MDWCPRDLWDECFN), the Background signal was determined as 0.066.
The substance Phage-319 (MSWCPRDLWHLCFF) had a Background signal of 0.077.
On to Phage-430 (IHLCHWVPWIKCSH), for which the Background signal (Peptide-9 library) is given as 2.516.
Turning to Phage-127 (MDWCPRALWNECFA), where the note is “Peptide-9 library”, the Background signal was found to be 0.080.
Phage-343 (MDWCPRDLWTQCFF) came in with a Background signal of 0.065.
The substance Phage-120 (MDWCPRDLWHACFS) yielded a Background signal (Peptide-9 library) of 0.074.
Substance Phage-372 (MDWCPRYLWVDCFA) displayed a Background signal of 0.095.
On the same count and under the same terms, the value for Phage-382 (ITWCPTSLWNRCLV) was 0.077.
Phage-428 (MNWCPSTMWNRCLT): where the note is “Peptide-9 library”, the Background signal was 0.067.
Still for that read-out and setting: the value for Phage-419 (VDWCPAHMWNECYN) was 0.208.
Still for that read-out and setting: the value for Phage-410 (IDWCPRYMWHECFF) was 0.098.
Take Phage-381 (MAWCPRILWHQCFN): the Background signal turned out to be 0.113.
Same read-out and setting: the value for Phage-334 (MDWCPRYLWDECFS) was 0.069; that for Phage-380 (MDYCPSYLWHECFA) was 0.065; that for Phage-303 (MDWCPRYLWTECFS) was 0.074.
On the same count and under the same terms, the value for Phage-320 (MDWCPTYLWNECFN) was 0.120.
Take Phage-402 (MDWCPRHMWHECFH): where the note is “Peptide-9 library”, the Background signal came out at 0.067.
With Phage-369 (MHWCPRDLWYECFA), the Background signal is listed as 0.072.
For the substance Phage-125 (MDWCPVSLWHVCFY), the Background signal (Peptide-9 library) is given as 0.107.
For Phage-361 (MHWCPRHLWSECFN), the Background signal is given as 0.165.
The same measure, in the same setting: as for Phage-397 (MDWCPRAMWDYCFY), the figure is 0.123.
With “Phage-60 (MDWCPRTLWYLCFN; left off: large carriers)”, the Background signal (Peptide-9 library) came to 0.508.
For Phage-317 (MDWCPRHLWHECFT), the Background signal was 0.103.
On to Phage-424 (ITQCPSTMWNRCSV), for which the Background signal (Peptide-9 library) is given as 0.067.
With Phage-301 (MDWCPRYLWHECFF), the Background signal was 0.082.
For the setting “Peptide-9 library”, “Phage-43 (MDWCPRALWHECFY; not fully specified; cysteine pairing not given here)” returned a Background signal of 0.115.
Same read-out and setting: as for “Phage-50 (MDWCPPYLWNVCFS; not fully specified; cysteine pairing not given here)”, the figure is 0.063.
On the same count and under the same terms, as for Phage-110 (MDWCPRYLWDECFN), the figure is 0.069.
Substance Phage-313 (MDWCPRSLWNYCFN) gave a Background signal of 0.076.
Phage-441 (MDWCPRDRWDDCFF) gave a Background signal (Peptide-9 library) of 0.114.
As for “Phage-271 (MDWCPTSFWNRCFH; not fully specified; cysteine pairing not given here; also: large carriers left off)”, the Background signal was 0.102.
On to Phage-111 (MDWCPFYLWNECFY), for which the Background signal (Peptide-9 library) turned out to be 0.099.
As to Phage-293 (MDWCPRHLWFECFN), the Background signal turned out to be 0.064.
Same read-out and setting: the value for Phage-281 (MDWCPRSLWFLCFN) was 1.110.
As to Phage-139 (MDWCPRDLWDVCFA), the Background signal (Peptide-9 library) is 0.096.
Regarding Phage-377 (MDWCPFDLWLECFN), the Background signal is 0.087.
For the substance Phage-404 (MDWCPRDMWTSCFN), where the note is “Peptide-9 library”, the Background signal is 0,100.
The same measure, in the same setting: as for Phage-446 (MDWCPRDRWDDCFN), the figure is 0.069; as for Phage-141 (MDWCPRSLWNVCFF), 0.106.
Take Phage-332 (IDWCPRALWDACLA): the Background signal is recorded as 0.269.
Regarding “Phage-272 (MVWCMSVGWAVCLN; cysteine pairing not given here; also: large carriers left off)”, the Background signal is recorded as 0.289.
For Phage-309 (MDWCPMFLWHECFN), the Background signal is on record as 0.170.
As to Phage-425 (MDLCPTAMWNRCFY), the Background signal (Peptide-9 library) is reported as 0.063.
Same read-out and setting: as for Phage-432 (IDWCPIIQGLPCFA), the figure is 0.058; as for “Phage-49 (MSWCPIHLWNECFN; not fully specified; cysteine pairing not given here)”, 0.083; as for “Phage-44 (MDWCPIALWAECFN; not fully specified; cysteine pairing not given here)”, 0.111.
Consider Phage-387 (MDWCPRHLWLECFN), for which the Background signal amounted to 0.064.
The same measure, in the same setting: as for Phage-368 (MSWCPPYLWTVCYN), the figure is 0.176.
In the case of Phage-422 (MYWCPINMWDYCYA), the Background signal (Peptide-9 library) worked out at 0.122.
Phage-112 (MHWCPRALWDVCYN): for the setting “Peptide-9 library”, the Background signal amounted to 0.077.
For the substance Phage-351 (MDWCPMNLWHECFA), the Background signal worked out at 0.080.
Still for that read-out and setting: the value for Phage-292 (MDWCPRALWDHCFF) was 0.081.
For “Phage-58 (MHWCPIDRWADCFN; left off: large carriers)”, where the note is “Peptide-9 library”, the Background signal worked out at 0.074.
The same measure, in the same setting: as for Phage-100 (MDWCPRYLWTECFN), the figure is 0.062.
On the same count and under the same terms, the value for Phage-405 (MDWCPMSMWAFCFD) was 0.102.
Phage-283 (MDWCPRHLWNECFN): the Background signal was found to be 0.079.
Under “Peptide-9 library”, “Phage-48 (IDWCPRYLWDECYN; not fully specified; cysteine pairing not given here)” yielded a Background signal of 0.061.
On to Phage-341 (MDWCPRHLWDECFN), for which the Background signal was 0.084.
In the case of Phage-431 (MAWCPADQWHECFN), the Background signal (Peptide-9 library) came to 0.076.
On the same count and under the same terms, the value for “Phage-61 (MVSCPTTMWNRCFN; left off: large carriers)” was 0.079.
Same read-out and setting: the value for Phage-400 (MHWCPTYMWSECFA) was 0.070; that for Phage-427 (VILCPTTMWNRCFH) was 0,100.
As for Phage-336 (MDWCPRDLWNWCFN), the Background signal turned out to be 0.139.
For the setting “Peptide-9 library”, Phage-448 (MAWCPWASFDECLA) registered a Background signal of 0.104.
Phage-359 (MDWCPRPLWHECFA) came in with a Background signal of 0.063.
